The Kinase Knowledgebase extract (Sharma et al. 2016)

The compounds below were run against PIK3CG (human) (UniProt P48736) (assay: Inhibition of PIK3CG Kinase Activity).
Chain of PIK3CG (human) (P48736 whole entry, looked up): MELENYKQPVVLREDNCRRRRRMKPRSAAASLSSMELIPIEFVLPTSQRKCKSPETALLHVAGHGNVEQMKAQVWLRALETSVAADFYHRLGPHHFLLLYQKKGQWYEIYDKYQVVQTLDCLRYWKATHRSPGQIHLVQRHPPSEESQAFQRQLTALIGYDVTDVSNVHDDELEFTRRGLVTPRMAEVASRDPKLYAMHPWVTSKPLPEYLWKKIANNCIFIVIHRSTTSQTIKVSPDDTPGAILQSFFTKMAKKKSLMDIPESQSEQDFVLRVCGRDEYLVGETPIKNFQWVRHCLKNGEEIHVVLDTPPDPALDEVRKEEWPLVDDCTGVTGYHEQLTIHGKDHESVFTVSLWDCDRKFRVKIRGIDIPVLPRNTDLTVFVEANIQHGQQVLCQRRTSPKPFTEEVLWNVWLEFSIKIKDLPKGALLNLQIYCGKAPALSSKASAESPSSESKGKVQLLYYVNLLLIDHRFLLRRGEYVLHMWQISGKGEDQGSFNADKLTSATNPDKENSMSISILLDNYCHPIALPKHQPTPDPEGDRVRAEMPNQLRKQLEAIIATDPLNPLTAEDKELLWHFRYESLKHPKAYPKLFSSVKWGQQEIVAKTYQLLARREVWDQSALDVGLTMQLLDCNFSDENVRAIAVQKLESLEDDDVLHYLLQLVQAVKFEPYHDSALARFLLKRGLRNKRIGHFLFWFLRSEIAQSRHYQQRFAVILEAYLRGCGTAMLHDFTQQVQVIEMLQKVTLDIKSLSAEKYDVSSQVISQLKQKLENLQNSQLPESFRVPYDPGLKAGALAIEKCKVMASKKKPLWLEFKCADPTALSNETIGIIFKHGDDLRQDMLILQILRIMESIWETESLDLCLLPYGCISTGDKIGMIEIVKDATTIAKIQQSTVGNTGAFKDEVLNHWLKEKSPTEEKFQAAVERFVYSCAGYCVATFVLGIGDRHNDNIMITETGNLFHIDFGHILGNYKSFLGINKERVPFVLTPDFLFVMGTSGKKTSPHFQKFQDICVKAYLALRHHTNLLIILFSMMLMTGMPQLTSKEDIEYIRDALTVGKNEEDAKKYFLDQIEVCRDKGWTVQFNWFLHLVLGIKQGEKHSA

Q: How did the IC50 turn out when CC(=O)Nc1nc2c(s1)-c1c(c(C3CC3)nn1-c1ccc(C(=O)N(C)[C@@H]3CCN(CC4CCCC4)C3)c(Cl)c1)CC2 was run?
A: < 600 nM

Q: For CC(=O)Nc1nc2c(s1)-c1c(c(C3CC3)nn1-c1ccc(C(=O)N[C@@H]3CCN(CC4CCCC4)C3)c(Cl)c1)CC2, which IC50 is on record?
A: < 600 nM

Q: How did the IC50 turn out when CC(=O)Nc1nc2c(s1)-c1c(c(C3CC3)nn1-c1ccc(C(=O)NC[C@@H]3CCCN3C3CCCC3)c(Cl)c1)CC2 was run?
A: < 600 nM

Q: How did the IC50 turn out when CC(=O)Nc1nc2c(s1)-c1c(c(C3CC3)nn1-c1ccc(NCC3CCNCC3)cc1Cl)CC2 was run?
A: < 600 nM

Q: How did the IC50 turn out when CC(=O)Nc1nc2c(s1)-c1c(c(C3CC3)nn1-c1ccc(C(=O)NC3CCN(C4CCOCC4)CC3)cc1C)CC2 was run?
A: < 600 nM

Q: For CC(=O)Nc1nc2c(s1)-c1c(c(C3CC3)nn1-c1ccc(C(=O)N[C@H]3CC[C@@H](N4CCCC4)CC3)c(F)c1)CC2, which IC50 is on record?
A: < 600 nM

Q: With CC(=O)Nc1nc2c(s1)-c1c(c(C3CC3)nn1-c1ccccc1C(F)(F)F)CC2 as the compound, how does the IC50 read?
A: < 600 nM

Q: How did the IC50 turn out when CC(=O)Nc1nc2c(s1)-c1c(c(C3CCCC3)nn1-c1ccc(C(=O)NC3CCN(C(C)C)CC3)cc1Cl)CC2 was run?
A: < 600 nM

Q: CC(=O)Nc1nc2c(s1)-c1c(c(C3(C)CC3)nn1-c1ccc(C(=O)NC3CCN(CC4CCCC4)CC3)cc1Cl)CC2 was tested. Which IC50 did it give?
A: < 600 nM

Q: With CC(=O)Nc1nc2c(s1)-c1c(c(C3CC3)nn1-c1ccc(C(=O)NC3CCN(CC4CCCCC4)CC3)c(C)c1)CC2 as the compound, how does the IC50 read?
A: < 600 nM

Q: For CC(=O)Nc1nc2c(s1)-c1c(c(C3CC3)nn1-c1ccc(NC(=O)C3CCN(C4CCCC4)CC3)cc1Cl)CC2, which IC50 is on record?
A: < 600 nM

Q: How did the IC50 turn out when CC(=O)Nc1nc2c(s1)-c1c(c(C3CC3)nn1-c1ccc(C(=O)NC3CCN(CC4CCCC4)CC3)c(Cl)c1)CC2 was run?
A: < 600 nM

Q: CC(=O)Nc1nc2c(s1)-c1c(c(C3(C)CC3)nn1-c1ccc(C(=O)NC3CCN(C)CC3)cc1Cl)CC2 was tested. Which IC50 did it give?
A: < 600 nM

Q: Which IC50 does the source give for CC(=O)Nc1nc2c(s1)-c1c(c(C3CC3)nn1-c1ccc(C(=O)N(C)[C@H]3CC[C@@H](N(C)CC4CC4)CC3)c(Cl)c1)CC2 here?
A: < 600 nM

Q: CCN(CC)CCN1CCN(C(=O)c2ccc(-n3nc(C4CC4)c4c3-c3sc(NC(C)=O)nc3CC4)cc2Cl)CC1 was tested. Which IC50 did it give?
A: < 600 nM

Q: How did the IC50 turn out when CC(=O)Nc1nc2c(s1)-c1c(c(C3(C)CC3)nn1-c1ccc(C(=O)NC3CCN(C4CCOCC4)CC3)cc1Cl)CC2 was run?
A: < 600 nM

Q: For CC(=O)Nc1nc2c(s1)-c1c(c(C3CC3)nn1-c1ccc(C(=O)N(C)CC3CCN(CC4CCCC4)CC3)c(Cl)c1)CC2, which IC50 is on record?
A: < 600 nM

Q: CC(=O)Nc1nc2c(s1)-c1c(c(C3CC3)nn1-c1ccc(C(=O)N(C)C3CCN(C4CCCC4)CC3)cc1Cl)CC2 was tested. Which IC50 did it give?
A: < 600 nM

Q: CC(=O)Nc1nc2c(s1)-c1c(c(C3CC3)nn1-c1ccc(C(=O)N3CCC(N(C)C4CCCC4)CC3)cc1Cl)CC2 was tested. Which IC50 did it give?
A: < 600 nM

Q: How did the IC50 turn out when CC(=O)Nc1nc2c(s1)-c1c(c(C3CC3)nn1C1CCC(C(=O)N[C@H]3CC[C@@H](N4CCCC4)CC3)CC1)CC2 (some centres undefined) was run?
A: < 600 nM

Q: CC(=O)Nc1nc2c(s1)-c1c(c(C3CC3)nn1-c1ccc(C(=O)NC3CCN(CC4CCCCC4)CC3)c(Cl)c1)CC2 was tested. Which IC50 did it give?
A: < 600 nM

Q: Which IC50 does the source give for CC(=O)Nc1nc2c(s1)-c1c(c(C3CC3)nn1-c1ccc(C(=O)NCC3CCN(CC4CCCC4)CC3)c(Cl)c1)CC2 here?
A: < 600 nM

Q: How did the IC50 turn out when CC(=O)Nc1nc2c(s1)-c1c(c(C3CC3)nn1-c1ccc(C(=O)N(C)[C@H]3CC[C@@H](N(C)CC4CC4)CC3)cc1Cl)CC2 was run?
A: < 600 nM

Q: With CC(=O)Nc1nc2c(s1)-c1c(c(C3CCC3)nn1-c1ccc(C(=O)N[C@H]3CC[C@@H](N4CCCC4)CC3)cc1Cl)CC2 as the compound, how does the IC50 read?
A: < 600 nM

Q: For CC(=O)Nc1nc2c(s1)-c1c(c(C3CC3)nn1-c1ccc(C(=O)NC3CCN(C4CCCCC4)CC3)cc1C)CC2, which IC50 is on record?
A: < 600 nM

Q: How did the IC50 turn out when CCCN1CCC(C(=O)Nc2ccc(-n3nc(C4CC4)c4c3-c3sc(NC(C)=O)nc3CC4)c(Cl)c2)CC1 was run?
A: < 600 nM

Q: CCN(C(=O)c1ccc(-n2nc(C3CC3)c3c2-c2sc(NC(C)=O)nc2CC3)cc1C)[C@H]1CC[C@@H](N2CCCC2)CC1 was tested. Which IC50 did it give?
A: < 600 nM

Q: CCCCN1CCN(C(=O)N2CCC(n3nc(C4CC4)c4c3-c3sc(NC(C)=O)nc3CC4)CC2)CC1 was tested. Which IC50 did it give?
A: < 600 nM

Q: CC(=O)Nc1nc2c(s1)-c1c(c(C3CC3)nn1-c1ccc(C(=O)N(C)[C@H]3CCN(C4CCCCC4)C3)cc1C)CC2 was tested. Which IC50 did it give?
A: < 600 nM

Q: For CC(=O)Nc1nc2c(s1)-c1c(c(C3CC3)nn1-c1ccc(C(=O)NC3CCN(CC4CCCCC4)CC3)c(F)c1)CC2, which IC50 is on record?
A: < 600 nM

Q: With CC(=O)Nc1nc2c(s1)-c1c(c(C3CC3)nn1-c1ccc(C(=O)N[C@H]3CC[C@@H](N4CCOCC4)CC3)cc1F)CC2 as the compound, how does the IC50 read?
A: < 600 nM

Q: CC(=O)Nc1nc2c(s1)-c1c(c(C3CC3)nn1-c1ccc(C(=O)N[C@@H]3CCN(C4CCCC4)C3)c(F)c1)CC2 was tested. Which IC50 did it give?
A: < 600 nM

Q: With CC(=O)Nc1nc2c(s1)-c1c(c(C3CC3)nn1-c1ccc(C(=O)N(C)C3CCN(C4CCCC4)CC3)c(C)c1)CC2 as the compound, how does the IC50 read?
A: < 600 nM

Q: For CC(=O)Nc1nc2c(s1)-c1c(c(C3CC3)nn1-c1ccc(C(=O)NC3CCN(C4CCCC4)CC3)cc1Cl)CC2, which IC50 is on record?
A: < 600 nM

Q: How did the IC50 turn out when CC(=O)Nc1nc2c(s1)-c1c(c(C3CC3)nn1-c1ccc(C(=O)N(C)[C@@H]3CCN(C4CCCC4)C3)cc1C)CC2 was run?
A: < 600 nM

Q: Which IC50 does the source give for CC(=O)Nc1nc2c(s1)-c1c(c(C3CC3)nn1-c1ccc(C(=O)N(C)[C@H]3CCN(C4CCCCC4)C3)cc1Cl)CC2 here?
A: < 600 nM

Q: With CCCN1CCC(NC(=O)c2ccc(-n3nc(C4CCC4)c4c3-c3sc(NC(C)=O)nc3CC4)c(Cl)c2)CC1 as the compound, how does the IC50 read?
A: < 600 nM

Q: CC(=O)Nc1nc2c(s1)-c1c(c(C3CC3)nn1-c1ccc(C(=O)N[C@H]3CC[C@H](C(N)=O)CC3)cc1Cl)CC2 was tested. Which IC50 did it give?
A: < 600 nM

Q: CC(=O)Nc1nc2c(s1)-c1c(c(C3CC3)nn1-c1ccc(C(=O)N[C@@H]3CCN(CC4CCCC4)C3)c(C)c1)CC2 was tested. Which IC50 did it give?
A: < 600 nM

Q: With CC(=O)Nc1nc2c(s1)-c1c(c(C3CC3)nn1-c1ccc(C(=O)N(C)[C@@H]3CCN(C4CCCC4)C3)c(F)c1)CC2 as the compound, how does the IC50 read?
A: < 600 nM

Q: Which IC50 does the source give for CC(=O)Nc1nc2c(s1)-c1c(c(C3CC3)nn1-c1ccc(C(=O)N(C)C3CCC(N4CCCC4)CC3)cc1Cl)CC2 (centres undefined) here?
A: < 600 nM

Q: For CC(=O)Nc1nc2c(s1)-c1c(c(C3CC3)nn1-c1ccc(NC(=O)[C@H]3CC[C@@H](N4CCCC4)CC3)cc1Cl)CC2, which IC50 is on record?
A: < 600 nM

Q: Which IC50 does the source give for CNC(=O)Cc1ccc(-n2nc(C3CC3)c3c2-c2sc(NC(C)=O)nc2CC3)c(Cl)c1 here?
A: < 600 nM

Q: For CC(=O)Nc1nc2c(s1)-c1c(c(C3CC3)nn1-c1ccc(C(=O)NC3CCN(CC4CCCC4)CC3)cc1Cl)CC2, which IC50 is on record?
A: < 600 nM

Q: Which IC50 does the source give for CC(=O)Nc1nc2c(s1)-c1c(c(C3CC3)nn1-c1ccc(C(=O)N3CCC(N4CCCC4)CC3)c(C)c1)CC2 here?
A: < 600 nM

Q: CNC(=O)C1CCC(n2nc(C3CC3)c3c2-c2sc(NC(C)=O)nc2CC3)CC1 (centres undefined) was tested. Which IC50 did it give?
A: < 600 nM

Q: Which IC50 does the source give for CCCN1CC[C@@H](NC(=O)c2ccc(-n3nc(C4CC4)c4c3-c3sc(NC(C)=O)nc3CC4)cc2Cl)C1 here?
A: < 600 nM

Q: How did the IC50 turn out when CC(=O)Nc1nc2c(s1)-c1c(c(C3CC3)nn1-c1ccc(O)cc1Cl)CC2 was run?
A: < 60 nM

Q: For CC(=O)Nc1nc2c(s1)-c1c(c(C3CC3)nn1-c1ccc(C(=O)N[C@H]3CC[C@@H](N(C)CC4CCCC4)CC3)cc1C)CC2, which IC50 is on record?
A: < 600 nM

Q: CC(=O)Nc1nc2c(s1)-c1c(c(C3CC3)nn1-c1ccc(C(=O)N[C@H]3CC[C@@H](N4CCCC4)CC3)cc1C)CC2 was tested. Which IC50 did it give?
A: < 600 nM

Q: With CC(=O)Nc1nc2c(s1)-c1c(c(C3CC3)nn1-c1ccc(CC(N)=O)cc1Cl)CC2 as the compound, how does the IC50 read?
A: < 600 nM

Q: How did the IC50 turn out when CC(=O)Nc1nc2c(s1)-c1c(c(C3CC3)nn1-c1ccc(C(=O)NC3CCN(C4CCOCC4)CC3)c(Cl)c1)CC2 was run?
A: < 600 nM

Q: How did the IC50 turn out when CCCN1CC[C@@H](NC(=O)c2ccc(-n3nc(C4CC4)c4c3-c3sc(NC(C)=O)nc3CC4)c(Cl)c2)C1 was run?
A: < 600 nM

Q: Which IC50 does the source give for CC(=O)Nc1nc2c(s1)-c1c(c(C3CC3)nn1-c1ccc(C(=O)N[C@H]3CC[C@@H](N(C)CC4CC4)CC3)c(F)c1)CC2 here?
A: < 600 nM
